We go through 4 substances from article PMC6662706, “Short amylin receptor antagonist peptides improve memory deficits in Alzheimer’s disease mouse model” (Scientific Reports, 2019).

Positions of bridges follow the written chain, without caps; N, C: chain ends. No end group written: not given here.

Data set [1] in a line: Brain uptake of R5 compared with davalintide, wild-type and het CTR mice. The class given is in vivo, mouse. To be noted: Cy5.5 labeled, ip 0.1 mmole, intact brain imaged 2 h post-injection, wild-type and het CTR mice, n=5 per group. Here is the method:
For peptide R5 brain uptake in comparison to Davlintide, wild-type littermate (C57BL/6 background) mice and heterozygous CTR knockdown mice (50% CTR expression level compared to wild type control mice and presumably with 50% AMY receptor expression level) was used (n=5 in each group). Mouse brains were extracted after 2h from a single injection and fluorescence in brains was quantified as mentioned above.
Supplementary Figure S3: The comparison of brain permeability for R5 and Davalintide.

Data set [2] can be described thus: Ex vivo NIR fluorescence brain imaging after ip injection (brain penetration). In kind it is in vivo, mouse. The settings on record: wild-type mice, 0, 0.6, 2, 10, 20 mg/kg single ip dose, 2 h, n = 3 per dose. The source says: Blood brain barrier (BBB) penetration can limit the potential of long sequence peptides as therapeutic agents in central nervous system (CNS). Previously, we have reported that a cyclized form of AC253 peptide and to a lesser degree its linear form can both penetrate the BBB at therapeutically relevant levels, and are localized to the hippocampus and cortex, regions relevant to memory and learning processes. Therefore, we examined the ability of Cy5.5 labeled peptide fragments (R5, and R14) to penetrate BBB in wild-type mice using NIR fluorescence ex vivo brain imaging. Brain fluorescence resulting from either R5 or R14 was assessed against full length AC253 2 h after a single intraperitoneal (ip) injection of peptides. […] Fluorescence signals were distributed throughout the cortex, but particularly strong within the hippocampal regions, where a very high density of amylin receptor expression has been reported. […]
In vivo brain penetration and pharmacokinetics of the peptides were determined in 6-month-old male or female wild-type (C57BL/6 background) and heterozygous CTR mice (het-CTR). […]
For ex vivo imaging experiments and peptide brain uptake, we used age matched 6-month-old wild-type littermate (C57BL/6 background) mice. […] Region of interest was drawn around the brain region and analyzed using the Kodak ID 3.6 software and the mean fluorescence intensity was recorded. […]

Data set [3] in a line: In vitro proteolytic stability in human serum. The class given is in vitro ADME. To be noted: 37°C, intact peptide at different time points estimated by RP-HPLC. Here is the method:
Subsequently, we investigated the proteolytic stability of R5, and R14 compared to AC253. […] By assessing the main degradation fragments for both peptides using MALDI-TOF, we found both peptides to be cleaved at the basic arginine amino acids.
Supplementary Figure S2: The comparison of bio-distribution for the fragments and their parent peptide. (A) Ex vivo fluorescence showing bio-distribution images for Cy5.5-R5, R14, AC253 in different organs at after a 2 h of a single ip injection of the peptides (0.1 mmol in 200µl saline). (B) Quantification of peptides fluorescence in each organ (n=3). (C) In vitro stability of R5, R14, and AC253 peptides in human serum compared with AC253 at 37°C. The amount of intact peptide in human serum at different time points was estimated using RP-HPLC.

Data set [4] deals with T1, AMY3 receptor (CTR+RAMP3) expressed on HEK293 cells (HEK-AMY3) (Homo sapiens, UniProt O60896+P30988).
T1 construct: expressed in transfected cells
T1 sequence (P30988 25-474): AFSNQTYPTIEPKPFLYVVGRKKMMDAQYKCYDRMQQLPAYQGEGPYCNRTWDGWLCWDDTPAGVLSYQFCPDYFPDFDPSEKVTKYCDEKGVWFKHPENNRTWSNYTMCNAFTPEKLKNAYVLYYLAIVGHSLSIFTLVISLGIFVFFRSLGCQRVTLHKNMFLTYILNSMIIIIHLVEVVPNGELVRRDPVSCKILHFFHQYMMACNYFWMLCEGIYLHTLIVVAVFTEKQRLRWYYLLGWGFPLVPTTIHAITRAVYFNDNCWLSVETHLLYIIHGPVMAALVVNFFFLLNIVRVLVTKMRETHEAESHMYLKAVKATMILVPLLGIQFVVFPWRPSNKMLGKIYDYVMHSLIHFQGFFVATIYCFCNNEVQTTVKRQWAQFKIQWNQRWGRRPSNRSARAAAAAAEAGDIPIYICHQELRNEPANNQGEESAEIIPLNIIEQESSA
T1 sequence (O60896 24-148): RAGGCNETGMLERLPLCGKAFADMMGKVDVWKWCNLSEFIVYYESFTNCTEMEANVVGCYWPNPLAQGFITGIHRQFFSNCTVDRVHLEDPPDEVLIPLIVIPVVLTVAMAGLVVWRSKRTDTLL
Description: Peptide array-cell binding assay (SPOT cellulose membrane, GFP-labeled cells). The settings on record: library R1-R14 on cellulose membrane, GFP-labeled HEK-AMY3 vs HEK-WT and HEK-CTR cells. From the text:
In order to identify shorter peptides with selective recognition and binding to amylin receptor, enhanced metabolic stability and brain penetrability than the linear full length peptide, we designed a peptide library comprised of 14 different sequences, namely, R1-R14. Fragments (R1−R13) are 12 amino acids in length and peptide R14 is 14 amino acids. The initial fragment comprised the first 12 amino acids from the N-terminus of AC253 sequence, and subsequent fragments derived from shifting one amino acid at a time, as depicted in Supplemental Fig. S1A. […] The relative binding affinities of peptide fragments were determined through measuring and plotting the net fluorescence intensity of the bound GFP labeled live cells on each spot as measured with a fluorescence Kodak imager (Supplemental Fig. S1C). […]
To screen peptide library for amylin receptor binding affinity, transfected GFP-positive Human Embryonic Kidney 293 cells that express AMY3 receptor (CTR+RAMP3) as previously reported was used ^8. […] The membrane was scanned at 465 nm excitation and 535 nm emission and the net fluorescence intensity of each peptide spot was quantified using Kodak IS2000MM Image station (GE Healthcare Systems/ART Inc). […]

For data set [5], the system named is hippocampal LTP (CA1). The experiment in a line: Hippocampal long-term potentiation (LTP) in slices from wild type mice. The settings on record: wild type mouse slices, 250 nM. More on the design: species or system mouse. Here is the method: We examined whether the peptide fragments were capable of influencing Aβ- or hAmylin-induced reduction of hippocampal LTP in mice. Exposure of hippocampal slices from wild-type mice to hAmylin (50 nM) or Aβ (50 nM) depressed LTP induced by a weak tetanization protocol at the CA1 region as previously reported[20],[30]. To determine whether peptides affected hAmylin or Aβ- induced depression of LTP, we applied 250 nM R5 or R14 continuously for 5 min prior to exposure of the hippocampal slices to 50 nM hAmylin or Aβ and the subsequent LTP induction. […] We therefore sought to determine whether peptide fragments were also capable of improving LTP levels in the same TgCRND8 AD mouse model. […] Importantly, doses of the short peptide fragments used in these experiments were equimolar to those used for AC253 and pramlintide in our previous studies[20],[30].
For electrophysiology experiment, hippocampal slices (400-μm thick) were prepared using a vibratome from wild type and TgCRND8 mice (8 month of age, male or female). For long-term potentiation (LTP) measurement, the stimulus strength was set to elicit 40–50% of the maximum fEPSP (field excitatory postsynaptic potential) amplitude and test pulses were delivered once every 30s. LTP was induced by 3-theta-burst stimulation protocol (each burst consisted of four pulses at 100 Hz with a 200-ms interburst interval). All drugs and chemicals were applied directly to the slice via bath perfusion.
Brains were quickly removed from mice following decapitation, placed in a cold artificial cerebral spinal fluid (aCSF) on a vibratome chamber, and transverse sections cut through the hippocampus. The aCSF contained (in millimolar 124 NaCl, 3 KCl, 2.4 CaCl2, 2 MgCl2, 1.25 NaH2PO4, 26 NaHCO3, and 10 D-glucose and was equilibrated with 95 % O2 and 5 % CO2. Hippocampal slices (400-μm thick) were maintained in aCSF-filled holding chamber at room temperature for at least 1 h and individually transferred to the submerged glass bottom recording chamber, which was constantly perfused with aCSF (2 ml/min) at 30 °C. Field excitatory postsynaptic potential (fEPSP) was recorded with a metallic (Pt/Ir) electrode (FHC, Bowdoin, ME) from the stratum radiatum layer of Cornu ammonis 1 region of the hippocampus (CA1) area, and the Schaffer collateral afferents were stimulated with 100-μs test pulses via a bipolar cluster electrode (FHC). For long-term potentiation (LTP) experiments, the stimulus strength was set to elicit 40–50 % of the maximum fEPSP amplitude and test pulses were delivered to Schaffer collaterals once every 30 s. […] Before 3-TBS or drug application, the responses were monitored for at least 10 min to ensure a stable baseline of fEPSP. […]

On the set-up of data set [6]: method as in PMID 29067318. To be noted: mouse, not told; cited from earlier work.

For the substance davalintide [reference compound], the “brain permeability, R5 versus davalintide” value in data set [1] is given as “lower brain permeability”.
Broadly, the half-life is the time in which the quantity being followed falls by half. With LGRLSQELHRLQTY-NH2 [R14], the “accumulation in the brain at increasing dose” value in data set [2] is recorded as “dose-dependent”. In data set [3], the half-life was 1.5 h.
With LQTYPRTNTGSN [R11], in data set [4], the “relative binding to HEK-AMY3 cells in library screening” value was “minimal binding”. Further, the “effect of peptide alone on hippocampal LTP” value in data set [5] was “did not impair LTP”.
“pramlintide: synthetic analog of amylin (KCNTATCATQRLANFLVHSSNNFGPILPPTNVGSNTY-NH2; disulfide 2-7; chains of the INN, looked up)”: in data set [6], the “brain permeability after systemic administration compared with cAC253 or R5” value is “lower brain permeability”.
